Source: patent publication US10131652B2, “Pyrimidinyloxy benzene derivatives as herbicides” (E. I. DU PONT DE NEMOURS AND COMPANY, priority 2014, dated 2018)
Where two headings read alike, the source gives them in different places.

What was measured:
Type in all cases: in vivo
corn (Zea mays) [1] = assay: Test B pre-/postemergence plant response; conditions: for Corn plant response rating (crop injury, 0 = no effect, 100 = complete kill) at 500 g/ha: 500 g ai/ha
In short: (§1)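 Ratings reflect visual injury versus untreated controls, from 0 for no effect to 100 for complete control, assessed roughly 10 days after treatment. Formulation: non-phytotoxic solvent mix with surfactant; pre- and postemergence sprays on plants grown in loam soil and sand.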

[2] = system: barnyardgrass (Echinochloa crus-galli); assay: Test B pre-/postemergence plant response; conditions: for pest or weed control at 500 g/ha: 500 g ai/ha
In short: as §1

[3] = system: wheat (Triticum aestivum); assay: Test B pre-/postemergence plant response; conditions: for plant injury at 500 g/ha: 500 g ai/ha
In short: as §1

[4] = system: giant foxtail (Setaria faberii); assay: Test B pre-/postemergence plant response; conditions: for pest or weed control at 500 g/ha: 500 g ai/ha
In short: as §1

[5] = system: pigweed (Amaranthus retroflexus); assay: Test B pre-/postemergence plant response; conditions: for pest or weed control at 500 g/ha: 500 g ai/ha
In short: as §1

[6] = system: waterhemp (common waterhemp, Amaranthus rudis); assay: Test D pre-/postemergence plant response; conditions: Amaranthus tuberculatus; for pest or weed control at 16 g/ha: 16 g ai/ha; for pest or weed control at 31 g/ha: 31 g ai/ha; for pest or weed control at 62 g/ha: 62 g ai/ha; for pest or weed control at 125 g/ha: 125 g ai/ha
In short: (§2)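 Pre-/post-emergence greenhouse test. Pre: seeded loam+sand, sprayed same day. Post: 1–4 leaf plants (2–18 cm), peat/vermiculite mix. Formulation: non-phytotoxic solvent + surfactant. Scored visually d13–15, 0–100 vs control.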

[7] = system: ragweed (common ragweed, Ambrosia elatior); assay: Test D pre-/postemergence plant response; conditions: Ambrosia artemisiifolia; for pest or weed control at 16 g/ha: 16 g ai/ha; for pest or weed control at 31 g/ha: 31 g ai/ha; for pest or weed control at 62 g/ha: 62 g ai/ha; for pest or weed control at 125 g/ha: 125 g ai/ha
In short: as §2

corn (Zea mays) [8] = assay: Test D pre-/postemergence plant response; conditions: Zea mays; for Corn plant response rating (crop injury, 0 = no effect, 100 = complete kill) at 62 g/ha: 62 g ai/ha
In short: as §2

[9] = system: morningglory (Ipomoea coccinea); assay: Test D pre-/postemergence plant response; conditions: Ipomoea; for pest or weed control at 16 g/ha: 16 g ai/ha; for pest or weed control at 31 g/ha: 31 g ai/ha; for pest or weed control at 62 g/ha: 62 g ai/ha; for pest or weed control at 125 g/ha: 125 g ai/ha
In short: as §2

soybean (Glycine max) = assay: Test D pre-/postemergence plant response; conditions: Glycine max, post-emergence, Postemergence
In short: as §2

[10] = Preemergence, 125 g ai/ha, 0 to 100 scale (0 no effect, 100 complete control)
[11] = pre-emergence, Preemergence, scale 0 to 100 (0 no effect, 100 complete control), read-out: Plant response rating, Waterhemp
[12] = pre-emergence, Preemergence, scale 0 to 100 (0 no effect, 100 complete control), read-out: Plant response rating, Ragweed
[13] = pre-emergence, Preemergence, scale 0 to 100 (0 no effect, 100 complete control), read-out: Plant response rating, Morningglory

Compound: FC(F)(F)c1cc(-c2ccccc2Oc2ncc(Cl)cn2)no1 [Compound 200, 5-chloro-2-[2-[5-(trifluoromethyl)-3-isoxazolyl]phenoxy]pyrimidine]
- Corn plant response rating (corn (Zea mays) [1]; [10]): 20
- Corn plant response rating (crop injury, 0 = no effect, 100 = complete kill) at 125 g/ha (corn (Zea mays) [1]; Zea mays, post-emergence, 240 h, 125 g ai/ha, postemergence, 0 to 100 scale, 0 no effect, 100 complete control): 50%
- Corn plant response rating (crop injury, 0 = no effect, 100 = complete kill) at 500 g/ha (corn (Zea mays) [1]; Zea mays, post-emergence, 240 h, postemergence, 0 to 100 scale, 0 no effect, 100 complete control): 90%
- Corn plant response rating (crop injury, 0 = no effect, 100 = complete kill) at 500 g/ha (corn (Zea mays) [1]; Zea mays, pre-emergence, 240 h, Preemergence, 0 to 100 scale where 0 is no effect and 100 is complete control): 100%
- pest or weed control at 125 g/ha ([2]; Echinochloa crus-galli, post-emergence, 240 h, 125 g ai/ha, postemergence, 0 to 100 scale, 0 no effect, 100 complete control, read-out: Plant response rating, Barnyardgrass): 90%
- pest or weed control at 500 g/ha ([2]; Echinochloa crus-galli, post-emergence, 240 h, postemergence, 0 to 100 scale, 0 no effect, 100 complete control, read-out: Plant response rating, Barnyardgrass): 100%
- pest or weed control at 500 g/ha ([2]; Echinochloa crus-galli, pre-emergence, 240 h, Preemergence, 0 to 100 scale where 0 is no effect and 100 is complete control, read-out: Plant response rating, Barnyardgrass): 100%
- Barnyardgrass plant response rating [2, 10]: 100
- Wheat plant response rating [3, 10]: 20
- plant injury at 125 g/ha ([3]; Triticum aestivum, post-emergence, 240 h, 125 g ai/ha, postemergence, 0 to 100 scale, 0 no effect, 100 complete control, read-out: Plant response rating, Wheat): 60%
- plant injury at 500 g/ha ([3]; Triticum aestivum, post-emergence, 240 h, postemergence, 0 to 100 scale, 0 no effect, 100 complete control, read-out: Plant response rating, Wheat): 100%
- plant injury at 500 g/ha ([3]; Triticum aestivum, pre-emergence, 240 h, Preemergence, 0 to 100 scale where 0 is no effect and 100 is complete control, read-out: Plant response rating, Wheat): 90%
- Foxtail, Giant plant response rating [4, 10]: 100
- pest or weed control at 125 g/ha ([4]; Setaria faberi, post-emergence, 240 h, 125 g ai/ha, postemergence, 0 to 100 scale, 0 no effect, 100 complete control, read-out: Plant response rating, Foxtail, Giant): 100%
- pest or weed control at 500 g/ha ([4]; Setaria faberi, post-emergence, 240 h, postemergence, 0 to 100 scale, 0 no effect, 100 complete control, read-out: Plant response rating, Foxtail, Giant): 100%
- pest or weed control at 500 g/ha ([4]; Setaria faberi, pre-emergence, 240 h, Preemergence, 0 to 100 scale where 0 is no effect and 100 is complete control, read-out: Plant response rating, Foxtail, Giant): 100%
- pest or weed control at 125 g/ha ([5]; Amaranthus retroflexus, post-emergence, 240 h, 125 g ai/ha, postemergence, 0 to 100 scale, 0 no effect, 100 complete control, read-out: Plant response rating, Pigweed): 100%
- pest or weed control at 500 g/ha ([5]; Amaranthus retroflexus, post-emergence, 240 h, postemergence, 0 to 100 scale, 0 no effect, 100 complete control, read-out: Plant response rating, Pigweed): 100%
- pest or weed control at 500 g/ha ([5]; Amaranthus retroflexus, pre-emergence, 240 h, Preemergence, 0 to 100 scale where 0 is no effect and 100 is complete control, read-out: Plant response rating, Pigweed): 100%
- Pigweed plant response rating [5, 10]: 100
- pest or weed control at 16 g/ha ([6]; post-emergence, Postemergence, read-out: Plant response rating (scale 0 to 100), Waterhemp): 80%
- pest or weed control at 31 g/ha ([6]; post-emergence, Postemergence, scale 0 to 100 (0 no effect, 100 complete control), read-out: Waterhemp plant response rating): 90%
- pest or weed control at 62 g/ha ([6]; post-emergence, Postemergence, scale 0 to 100, 0 no effect, 100 complete control, read-out: Waterhemp plant response rating): 98%
- pest or weed control at 125 g/ha ([6]; post-emergence, Postemergence, scale 0 to 100, 0 no effect, 100 complete control, read-out: Plant response rating, Waterhemp): 100%
- pest or weed control at 125 g/ha ([6]; pre-emergence, Preemergence, read-out: Plant response rating (scale 0 to 100), Waterhemp): 100%
- pest or weed control at 16 g/ha [6, 11]: 98%
- pest or weed control at 31 g/ha [6, 11]: 100%
- pest or weed control at 62 g/ha [6, 11]: 100%
- pest or weed control at 16 g/ha ([7]; post-emergence, Postemergence, read-out: Plant response rating (scale 0 to 100), Ragweed): 30%
- pest or weed control at 31 g/ha ([7]; post-emergence, Postemergence, scale 0 to 100 (0 no effect, 100 complete control), read-out: Ragweed plant response rating): 55%
- pest or weed control at 62 g/ha ([7]; post-emergence, Postemergence, scale 0 to 100, 0 no effect, 100 complete control, read-out: Ragweed plant response rating): 60%
- pest or weed control at 125 g/ha ([7]; post-emergence, Postemergence, scale 0 to 100, 0 no effect, 100 complete control, read-out: Plant response rating, Ragweed): 40%
- pest or weed control at 125 g/ha ([7]; pre-emergence, Preemergence, read-out: Plant response rating (scale 0 to 100), Ragweed): 80%
- pest or weed control at 16 g/ha [7, 12]: 0%
- pest or weed control at 31 g/ha [7, 12]: 5%
- pest or weed control at 62 g/ha [7, 12]: 70%
- plant injury at 16 g/ha (corn (Zea mays) [8]; post-emergence, Postemergence, 16 g ai/ha, read-out: Plant response rating (scale 0 to 100), Corn): 5%
- plant injury at 31 g/ha (corn (Zea mays) [8]; post-emergence, Postemergence, 31 g ai/ha, scale 0 to 100 (0 no effect, 100 complete control), read-out: Corn plant response rating): 5%
- Corn plant response rating (crop injury, 0 = no effect, 100 = complete kill) at 62 g/ha (corn (Zea mays) [8]; post-emergence, Postemergence, scale 0 to 100, 0 no effect, 100 complete control): 10%
- Corn plant response rating (crop injury, 0 = no effect, 100 = complete kill) at 125 g/ha (corn (Zea mays) [8]; post-emergence, Postemergence, 125 g ai/ha, scale 0 to 100, 0 no effect, 100 complete control): 15%
- plant injury at 125 g/ha (corn (Zea mays) [8]; pre-emergence, Preemergence, 125 g ai/ha, read-out: Plant response rating (scale 0 to 100), Corn): 20%
- Corn plant response rating (crop injury, 0 = no effect, 100 = complete kill) at 16 g/ha (corn (Zea mays) [8]; pre-emergence, Preemergence, 16 g ai/ha, scale 0 to 100 (0 no effect, 100 complete control)): 0%
- Corn plant response rating (crop injury, 0 = no effect, 100 = complete kill) at 31 g/ha (corn (Zea mays) [8]; pre-emergence, Preemergence, 31 g ai/ha, scale 0 to 100 (0 no effect, 100 complete control)): 0%
- Corn plant response rating (crop injury, 0 = no effect, 100 = complete kill) at 62 g/ha (corn (Zea mays) [8]; pre-emergence, Preemergence, scale 0 to 100 (0 no effect, 100 complete control)): 10%
- pest or weed control at 16 g/ha ([9]; post-emergence, Postemergence, read-out: Plant response rating (scale 0 to 100), Morningglory): 55%
- pest or weed control at 31 g/ha ([9]; post-emergence, Postemergence, scale 0 to 100 (0 no effect, 100 complete control), read-out: Morningglory plant response rating): 50%
- pest or weed control at 62 g/ha ([9]; post-emergence, Postemergence, scale 0 to 100, 0 no effect, 100 complete control, read-out: Morningglory plant response rating): 85%
- pest or weed control at 125 g/ha ([9]; post-emergence, Postemergence, scale 0 to 100, 0 no effect, 100 complete control, read-out: Plant response rating, Morningglory): 98%
- pest or weed control at 125 g/ha ([9]; pre-emergence, Preemergence, read-out: Plant response rating (scale 0 to 100), Morningglory): 90%
- pest or weed control at 16 g/ha [9, 13]: 5%
- pest or weed control at 31 g/ha [9, 13]: 45%
- pest or weed control at 62 g/ha [9, 13]: 70%
- plant injury at 16 g/ha (soybean (Glycine max); 16 g ai/ha, read-out: Plant response rating (scale 0 to 100), Soybean): 60%
- plant injury at 31 g/ha (soybean (Glycine max); 31 g ai/ha, scale 0 to 100 (0 no effect, 100 complete control), read-out: Soybean plant response rating): 85%
